ChEMBL document CHEMBL5131386, “Synthesis and biological evaluation of novel schisanhenol derivatives as potential hepatoprotective agents” (Eur J Med Chem, 2022)
Active and inactive are the calls of the source. The rule behind the calls is not given here.

Assays:
L02 [1] = assay: Hepatoprotective activity against concanavalin A induced liver injury in human HL7702 cells assessed as cell survival rate at 5 uM preincubated for 12 hrs followed by concanavalin A stimulation for 12 hrs by MTT assay (reference value: 51.37%); format: functional; conditions: time 24 hrs, read-out: Survival
L02 [2] = assay: Cytotoxicity against human HL7702 cells ssessed as cell survival rate at 5 uM for 12 hrs by MTT assay; format: toxicity, cell-based; conditions: l02, 12 h
L02 [3] = assay: Hepatoprotective activity against concanavalin A induced human HL7702 cell apoptosis assessed as decrease in Bax expression level at 5 uM preincubated for 12 hrs followed by concanavalin A stimulation for 12 hrs by Western blot analysis; format: functional, cell-based; conditions: time 24.0 hrs
L02 [4] = assay: Hepatoprotective activity against concanavalin A induced human HL7702 cell apoptosis assessed as increase in Bcl-2 expression level at 5 uM preincubated for 12 hrs followed by concanavalin A stimulation for 12 hrs by Western blot analysis; format: functional, cell-based; conditions: time 24.0 hrs
L02 [5] = assay: Hepatoprotective activity against concanavalin A induced human HL7702 cell apoptosis assessed as nuclear morphological changes at 5 uM preincubated for 12 hrs followed by concanavalin A stimulation for 12 hrs by Hoechst 33342 staining based fluorescence microscopy; format: functional; conditions: time 24.0 hrs
L02 [6] = assay: Hepatoprotective activity against concanavalin A induced human HL7702 cell apoptosis assessed as decrease in cleaved caspase-3 level at 5 uM preincubated for 12 hrs followed by concanavalin A stimulation for 12 hrs by Western blot analysis; format: functional, cell-based; conditions: time 24.0 hrs
L02 [7] = assay: Hepatoprotective activity against concanavalin A induced livery injury in human HL7702 cells assessed as decrease in JAK2 phosphorylation level at 5 uM preincubated for 12 hrs followed by concanavalin A stimulation for 12 hrs by Western blot analysis; format: functional, cell-based; conditions: time 24.0 hrs
L02 [8] = assay: Hepatoprotective activity against concanavalin A induced livery injury in human HL7702 cells assessed as increase in HO-1 expression level at 5 uM preincubated for 12 hrs followed by concanavalin A stimulation for 12 hrs by Western blot analysis; format: functional, cell-based; conditions: time 24.0 hrs
L02 [9] = assay: Hepatoprotective activity against concanavalin A induced livery injury in human HL7702 cells assessed as decrease in STAT3 phosphorylation level at 5 uM preincubated for 12 hrs followed by concanavalin A stimulation for 12 hrs by Western blot analysis; format: functional, cell-based; conditions: time 24.0 hrs

For `COc1c(Cl)c2c(c(OC)c1OC)-c1c(c(Cl)c(OC)c(OC)c1OC(=O)c1ccc([N+](=O)[O-])cc1)CC(C)C(C)C2` (stereo not given), the viability at 5 µM (L02 [1]) was 59.4%.

`COc1c(Cl)c2c(c(OC)c1OC)-c1c(c(Cl)c(OC)c(OC)c1OC(=O)c1cccnc1)CC(C)C(C)C2` (stereo not given) showed a viability at 5 µM (L02 [1]) of 79.4%.

For `COC1=C(OC)C(OC)CC2=C1c1c(c([N+](=O)[O-])c(OC)c(OC)c1OCCCO)CC(C)C(C)C2` (stereo not given), the viability at 5 µM (L02 [1]) was 73.1%.

Work on `COc1cc2c(c(OC)c1OC)-c1c(c(Cl)c(OC)c(OC)c1OC(=O)c1ccc(C(F)(F)F)cc1)CC(C)C(C)C2` (stereo not given) yielded a viability at 5 µM (L02 [1]) of 61.8%.

For `COc1cc2c(c(OC)c1OC)-c1c(c([N+](=O)[O-])c(OC)c(OC)c1OC(=O)/C=C/c1ccccc1)CC(C)C(C)C2` (stereo not given), the Activity (L02 [2]) was “Non-Toxic”, the Activity (L02 [3]) was “Active” and the viability at 5 µM (L02 [1]) was 97.4%. For the same compound, the Activity (L02 [4]) was “Active”, the Activity (L02 [5]) was “Active” and the Activity (L02 [6]) was “Active”.

For `COc1cc2c(c(OC)c1OC)-c1c(O)c(OC)c(OC)c([N+](=O)[O-])c1CC(C)C(C)C2` (stereo not given), the viability at 5 µM (L02 [1]) was 70.2%.

`COc1c(Cl)c2c(c(OC)c1OC)-c1c(c(Cl)c(OC)c(OC)c1OCCCO)CC(C)C(C)C2` (stereo not given) gave a viability at 5 µM (L02 [1]) of 67.1%.

Work on `COc1c(Cl)c2c(c(OC)c1OC)-c1c(c(Cl)c(OC)c(OC)c1OC(=O)c1ccc(C(F)(F)F)cc1)CC(C)C(C)C2` (stereo not given) yielded a viability at 5 µM (L02 [1]) of 65.1%.

In the case of `COc1c(Cl)c2c(c(OC)c1OC)-c1c(c(Cl)c(OC)c(OC)c1OC(=O)/C=C/c1ccccc1)CC(C)C(C)C2` (stereo not given), the Activity (L02 [7]) is reported as “Active”, the Activity (L02 [2]) is reported as “Non-Toxic” and the Activity (L02 [3]) is reported as “Active”. For the same compound, the viability at 5 µM (L02 [1]) was 89.7%, the Activity (L02 [8]) was “Active” and the Activity (L02 [4]) was “Active”. For the same compound, the Activity (L02 [9]) was “Active”, the Activity (L02 [5]) was “Active” and the Activity (L02 [6]) was “Active”.

Compound `COc1c(Cl)c2c(c(OC)c1OC)-c1c(c(Cl)c(OC)c(OC)c1OC(=O)c1cccs1)CC(C)C(C)C2` (stereo not given) has a viability at 5 µM (L02 [1]) of 80.4%.

`COc1c(Cl)c2c(c(OC)c1OC)-c1c(c(Cl)c(OC)c(OC)c1OC(=O)c1ccc(Cl)cc1Cl)CC(C)C(C)C2` (stereo not given) gave a viability at 5 µM (L02 [1]) of 68%.

For `COc1cc2c(c(OC)c1OC)-c1c(c([N+](=O)[O-])c(OC)c(OC)c1OC(=O)c1cccnc1)CC(C)C(C)C2` (stereo not given), the viability at 5 µM (L02 [1]) was 49.9%.
